These results are taken from US20240343740A1, “MACROCYCLIC GLUCAGON-LIKE PEPTIDE 1 RECEPTOR AGONISTS” (Eli Lilly and Company, priority 2021, published 2024).

As usually defined, the EC50 is the concentration that produces a half-maximal response. Broadly, the Emax is the greatest response seen or fitted, relative to the assay's reference.

For assay [1], the target named is T1, human GLP-1R (Homo sapiens, UniProt P43220). Kind of assay: Human GLP-1 Receptor HEK293 cell cAMP assay, 581 fmol/mg GLP-1R expression density. Further details: expressed in transfected cells; host or cells: HEK293 clonal cell line. Type of assay: cell-based. The following applies: HEK293 cell line with 581 fmol/mg expression density of GLP-1R; for EC50: geometric mean, read-out: EC50 nM (SEM, n), intracellular cAMP response, relative EC50; for Emax: percent of maximal response to GLP-1(7-36)NH2, arithmetic mean, read-out: Emax % (SEM, n), intracellular cAMP response. The method, boiled down: (§1)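 HEK293 clonal lines expressing human GLP-1R, 20-point compound curves, 30 min at 37° C in DMEM with 0.1% casein, 250 μM IBMX, 0.5% DMSO. cAMP by HTRF, converted via standard curve to % of maximal human GLP-1(7-36)NH2 response; relative EC50 and Emax from four-parameter logistic fit.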
T1 sequence (P43220 24-463): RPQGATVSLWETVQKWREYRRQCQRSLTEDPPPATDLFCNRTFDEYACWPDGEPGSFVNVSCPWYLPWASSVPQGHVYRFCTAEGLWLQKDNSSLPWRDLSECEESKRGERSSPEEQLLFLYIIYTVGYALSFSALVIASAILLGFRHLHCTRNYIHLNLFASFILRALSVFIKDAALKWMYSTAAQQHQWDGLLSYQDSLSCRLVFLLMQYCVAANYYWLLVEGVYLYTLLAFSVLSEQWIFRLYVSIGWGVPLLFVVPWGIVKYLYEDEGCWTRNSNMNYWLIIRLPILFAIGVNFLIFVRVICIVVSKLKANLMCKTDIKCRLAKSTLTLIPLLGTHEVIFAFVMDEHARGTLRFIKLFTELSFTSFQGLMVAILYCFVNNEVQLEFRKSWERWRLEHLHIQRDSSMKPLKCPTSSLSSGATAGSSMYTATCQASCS
For orientation: Cyclic AMP is a second messenger, typically raised through Gs and lowered through Gi signalling.

For assay [2], the target named is T1, human GLP-1R. Kind of assay: Human GLP-1 Receptor HEK293 cell cAMP assay, 104 fmol/mg GLP-1R expression density. Type of assay: cell-based. Further details: expressed in transfected cells; host or cells: HEK293 clonal cell line. The conditions noted are these: HEK293 cell line with 104 fmol/mg expression density of GLP-1R; for EC50: geometric mean, read-out: EC50 nM (SEM, n), intracellular cAMP response, relative EC50; for Emax: percent of maximal response to GLP-1(7-36)NH2, arithmetic mean, read-out: Emax % (SEM, n), intracellular cAMP response. In short, it runs like this:
as §1

For `COCCOc1cc(C(=O)O)cc2c1nc(Cc1ccc3cc1COCCc1cc(C#N)ccc1COc1cccc-3n1)n2C[C@@H]1CCO1` [Example 64, (S)-2-((5^4-Cyano-3,8-dioxa-2(2,6)-pyridina-1(1,3),5(1,2)-dibenzenacyclononaphane-1^4-yl)methyl)-4-(2-methoxyethoxy)-1-(oxetan-2-ylmethyl)-1H-benzo[d]imidazole-6-carboxylic acid], the EC50 in assay [1] is 2.13 nM; in assay [2] it was 5.53 nM. For the same molecule, the Emax in assay [1] was determined as 110%; in assay [2], 87.3%.

`COCCOc1cc(C(=O)O)cc2c1nc(Cc1ccc3cc1COCCc1cc(ccc1C#N)COc1cccc-3n1)n2C[C@@H]1CCO1` [Example 65, (S)-2-((5^4-Cyano-3,8-dioxa-2(2,6)-pyridina-1,5(1,3)-dibenzenacyclononaphane-1^4-yl)methyl)-4-(2-methoxyethoxy)-1-(oxetan-2-ylmethyl)-1H-benzo[d]imidazole-6-carboxylic acid]: in assay [1], the EC50 worked out at 1.86 nM and the maximal response (Emax) was 110%. Also, in assay [2], the EC50 is 4.62 nM and the Emax came out at 98.2%.

On to `O=C(O)c1ccc2nc(Cc3ccc4cc3OCCCc3cc(-n5cnc(F)c5)ccc3COc3cccc-4n3)n(C[C@@H]3CCO3)c2c1` [Example 66, (S)-2-((5^4-(4-Fluoro-1H-imidazol-1-yl)-3,9-dioxa-2(2,6)-pyridina-1(1,3),5(1,2)-dibenzenacyclononaphane-1^4-yl)methyl)-1-(oxetan-2-ylmethyl)-1H-benzo[d]imidazole-6-carboxylic acid], for which, in assay [1], the EC50 was determined as 13.4 nM and the Emax came out at 118%. Further, in assay [2], the EC50 is 54.5 nM and the Emax was 82.5%.

In the case of `COCCOc1cc(C(=O)O)cc2c1nc(Cc1cc(F)c3cc1COCc1cc(Cl)ccc1COc1cccc-3n1)n2C[C@@H]1CCO1` [Example 67, (S)-2-((5^4-Chloro-1^6-fluoro-3,7-dioxa-2(2,6)-pyridina-1(1,3),5(1,2)-dibenzenacyclooctaphane-1^4-yl)methyl)-4-(2-methoxyethoxy)-1-(oxetan-2-ylmethyl)-1H-benzo[d]imidazole-6-carboxylic acid], the concentration for a half-maximal effect (EC50) in assay [1] is 2.13 nM; in assay [2], 6.88 nM. For the same molecule, the Emax in assay [1] came to 117%; in assay [2], 91.6%.

Take `COCCOc1cc(C(=O)O)cc2c1nc(Cc1cc(F)c3cc1COCc1cc(C#N)ccc1COc1cccc-3n1)n2C[C@@H]1CCO1` [Example 68, (S)-2-((5^4-Cyano-1^6-fluoro-3,7-dioxa-2(2,6)-pyridina-1(1,3),5(1,2)-dibenzenacyclooctaphane-1^4-yl)methyl)-4-(2-methoxyethoxy)-1-(oxetan-2-ylmethyl)-1H-benzo[d]imidazole-6-carboxylic acid]: in assay [1], the EC50 came out at 6.82 nM and the Emax is 115%. Besides, in assay [2], the EC50 came out at 8.72 nM and the Emax stood at 98.5%.

For the molecule `COc1cc(C(=O)NS(=O)(=O)CC2CC2)cc2c1nc(Cc1cc(C)c3cc1OCCCc1cc(F)ccc1COc1cccc-3n1)n2C[C@@H]1CCO1` [Example 69, (S)—N-((Cyclopropylmethyl)sulfonyl)-2-((5^4-fluoro-1^6-methyl-3,9-dioxa-2(2,6)-pyridina-1(1,3),5(1,2)-dibenzenacyclononaphane-1^4-yl)methyl)-4-methoxy-1-(oxetan-2-ylmethyl)-1H-benzo[d]imidazole-6-carboxamide], in assay [1], the EC50 is 59.8 nM and the Emax is 71.6%. Moreover, in assay [2], the EC50 was 103 nM and the Emax was determined as 26.6%.

As to `COCCOc1cc(C(=O)O)cc2c1nc(Cc1cc(F)c3cc1COCCc1cc(C#N)cc(F)c1COc1cccc-3n1)n2C[C@@H]1CCO1` [Example 70, (S)-2-((5^4-Cyano-1^6,5^6-difluoro-3,8-dioxa-2(2,6)-pyridina-1(1,3),5(1,2)-dibenzenacyclononaphane-1^4-yl)methyl)-4-(2-methoxyethoxy)-1-(oxetan-2-ylmethyl)-1H-benzo[d]imidazole-6-carboxylic acid], the EC50 in assay [1] turned out to be 3.11 nM; in assay [2] it was 12.6 nM. The Emax came to 92.3% in assay [1] and 95% in assay [2].

`O=C(O)c1ccc2nc(Cc3ccc4cc3OCCCc3cc(-n5ccc(=O)c(F)c5)ccc3COc3cccc-4n3)n(C[C@@H]3CCO3)c2c1` [Example 71, (S)-2-((5^4-(3-Fluoro-4-oxopyridin-1(4H)-yl)-3,9-dioxa-2(2,6)-pyridina-1(1,3),5(1,2)-dibenzenacyclononaphane-1^4-yl)methyl)-1-(oxetan-2-ylmethyl)-1H-benzo[d]imidazole-6-carboxylic acid]: in assay [1], the EC50 turned out to be 138 nM and the Emax is 68.4%. Besides, in assay [2], the half-maximal effective concentration (EC50) was 598 nM and the Emax came to 52.1%.

Turning to `Cc1cn(-c2ccc3c(c2)CCCOc2cc(ccc2Cc2nc4ccc(C(=O)O)cc4n2C[C@@H]2CCO2)-c2cccc(n2)OC3)cn1` [Example 72, (S)-2-((5^4-(4-Methyl-1H-imidazol-1-yl)-3,9-dioxa-2(2,6)-pyridina-1(1,3),5(1,2)-dibenzenacyclononaphane-1^4-yl)methyl)-1-(oxetan-2-ylmethyl)-1H-benzo[d]imidazole-6-carboxylic acid], in assay [1], the EC50 is 92.5 nM and the Emax is 106%. For the same molecule, in assay [2], the EC50 is 348 nM and the maximum response (Emax) came out at 90.4%.

With `O=C(O)c1ccc2nc(Cc3ccc4cc3OCCCc3cc(-n5ccnc5)ccc3COc3cccc-4n3)n(C[C@@H]3CCO3)c2c1` [Example 73, (S)-2-((5^4-(1H-Imidazol-1-yl)-3,9-dioxa-2(2,6)-pyridina-1(1,3),5(1,2)-dibenzenacyclononaphane-1^4-yl)methyl)-1-(oxetan-2-ylmethyl)-1H-benzo[d]imidazole-6-carboxylic acid], in assay [1], the EC50 stood at 21.3 nM and the Emax was determined as 106%. For the same molecule, in assay [2], the EC50 came to 68.5 nM and the Emax was found to be 84.1%.

Take `O=C(O)c1ccc2nc(Cc3ccc4cc3OCCCc3cc(-n5ccc(=O)cc5)ccc3COc3cccc-4n3)n(C[C@@H]3CCO3)c2c1` [Example 74, (S)-1-(Oxetan-2-ylmethyl)-2-((5^4-(4-oxopyridin-1(4H)-yl)-3,9-dioxa-2(2,6)-pyridina-1(1,3),5(1,2)-dibenzenacyclononaphane-1^4-yl)methyl)-1H-benzo[d]imidazole-6-carboxylic acid]: in assay [1], the EC50 amounted to 155 nM and the Emax was 92.1%. In addition, in assay [2], the EC50 came to 533 nM and the Emax came to 73.3%.

Take `COCCOc1cc(C(=O)O)cc2c1nc(Cc1cc(F)c3cc1COCc1cc(-c4ccc(=O)n(C)c4)ccc1COc1cccc-3n1)n2C[C@@H]1CCO1` [Example 75, (S)-2-((1^6-Fluoro-5^4-(1-methyl-6-oxo-1,6-dihydropyridin-3-yl)-3,7-dioxa-2(2,6)-pyridina-1(1,3),5(1,2)-dibenzenacyclooctaphane-1^4-yl)methyl)-4-(2-methoxyethoxy)-1-(oxetan-2-ylmethyl)-1H-benzo[d]imidazole-6-carboxylic acid]: in assay [1], the EC50 was 6.33 nM and the Emax was 93.9%. Besides, in assay [2], the EC50 came out at 17.4 nM and the Emax was 71.6%.

Turning to `O=C(O)c1ccc2nc(Cc3ccc4cc3OCCCc3cc(-c5cnn(C6COC6)c5)ccc3COc3cccc-4n3)n(C[C@@H]3CCO3)c2c1` [Example 76, (S)-1-(Oxetan-2-ylmethyl)-2-((5^4-(1-(oxetan-3-yl)-1H-pyrazol-4-yl)-3,9-dioxa-2(2,6)-pyridina-1(1,3),5(1,2)-dibenzenacyclononaphane-1^4-yl)methyl)-1H-benzo[d]imidazole-6-carboxylic acid], the concentration for a half-maximal effect (EC50) turned out to be 102 nM in assay [1] and 359 nM in assay [2]. Also, the figures for the Emax in assay [1] and in assay [2] were 99.9% and 78.2%, respectively.

For `CN(C)C(=O)c1ccc(-c2ccc3c(c2)CCCOc2cc(ccc2Cc2nc4ccc(C(=O)O)cc4n2C[C@@H]2CCO2)-c2cccc(n2)OC3)cc1` [Example 77, (S)-2-((5^4-(4-(Dimethylcarbamoyl)phenyl)-3,9-dioxa-2(2,6)-pyridina-1(1,3),5(1,2)-dibenzenacyclononaphane-1^4-yl)methyl)-1-(oxetan-2-ylmethyl)-1H-benzo[d]imidazole-6-carboxylic acid], in assay [1], the EC50 was 193 nM and the maximal response (Emax) is 107%. Also, in assay [2], the EC50 was 724 nM and the Emax turned out to be 83%.

Consider `Nc1cc(-c2ccc3c(c2)CCCOc2cc(ccc2Cc2nc4ccc(C(=O)O)cc4n2C[C@@H]2CCO2)-c2cccc(n2)OC3)ccn1` [Example 78, (S)-2-((5^4-(2-Aminopyridin-4-yl)-3,9-dioxa-2(2,6)-pyridina-1(1,3),5(1,2)-dibenzenacyclononaphane-1^4-yl)methyl)-1-(oxetan-2-ylmethyl)-1H-benzo[d]imidazole-6-carboxylic acid], for which, in assay [1], the concentration for a half-maximal effect (EC50) came to 95.8 nM and the maximum response (Emax) stood at 99.8%. For the same molecule, in assay [2], the EC50 worked out at 248 nM and the Emax is 74.1%.
